Here are results for 1 cell line from the supplement of paper PMC10307832.

What all share (assay): relative viability (nuclei count vs DMSO), 5 days (fraction); higher = more cells survive
Compound in experiment [1]: C1CC(C2=C(C1)C3=C(N2)C=CC(=C3)Cl)C(=O)N [Selisistat] + CC(C)C[C@H](NC(=O)[C@H](Cc1ccccc1)NC(=O)c1cnccn1)B(O)O [Bortezomib] (partner 0.002 µM)
The procedure, abridged:
(§1)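 Relative viability is defined as nuclei in treated wells over nuclei in vehicle wells. Duplicate plates were run and medians reported. Lung cancer cell lines in 1536-well plates were dosed by pin tool one day after seeding, with one drug or with a fixed anchor-drug dose plus five library-drug doses (not always all listed) in √10 steps, and nuclei were counted after 5 days.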

Compound in experiment [2]: C1CC(C2=C(C1)C3=C(N2)C=CC(=C3)Cl)C(=O)N [Selisistat] + O=C(CCCCCCC(=O)Nc1ccccc1)NO [Vorinostat] (partner 1 µM)
The procedure, abridged: as §1

Compound in experiment [3]: c1ccc2c(CCNc3ccc(Nc4ccncc4)cc3)c[nH]c2c1 [Serdemetan] + COc1cccc2cc(-c3nc([C@H]4CC[C@H](C(=O)O)CC4)n4ncnc(N)c34)[nH]c12 [OSI-027] (partner 0.5 µM)
The procedure, abridged: as §1

Compound in experiment [4]: c1ccc2c(CCNc3ccc(Nc4ccncc4)cc3)c[nH]c2c1 [Serdemetan] + Nc1ncn([C@H]2C[C@H](O)[C@@H](CO)O2)c(=O)n1 [Decitabine] (partner 2 µM)
The gist of the method: as §1

UMC-11: the relative viability in experiment [1] (first compound 0.4 µM) was 0.494; in experiment [1] (first compound 1.265 µM) it was 0.71; in experiment [1] (first compound 4 µM), 0.738; in experiment [1] (first compound 12.65 µM), 0.671; in experiment [1] (first compound 40 µM), 0.626; in experiment [2] (first compound 0.4 µM), 0.456. The relative viability stood at 0.477 in experiment [2] (first compound 1.265 µM); 0.531 in experiment [2] (first compound 4 µM); 0.504 in experiment [2] (first compound 12.65 µM); 0.593 in experiment [2] (first compound 40 µM); 0.563 in experiment [3] (first compound 0.04 µM); 0.485 in experiment [3] (first compound 0.1265 µM). The relative viability in experiment [3] (first compound 4 µM) worked out at 0.428; in experiment [4] (first compound 0.04 µM), 0.564; in experiment [4] (first compound 0.1265 µM), 0.387; in experiment [4] (first compound 0.4 µM) it was 0.685; in experiment [4] (first compound 1.265 µM), 0.649; in experiment [4] (first compound 4 µM), 0.532.
